Test results reported in PubChem BioAssay (NCI).
Where “and” joins values, the source holds several entries; their conditions need not be identical. Equal values may be shown once.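 Interpolation was linear, between the two tested concentrations surrounding the appropriate level; five concentrations were tested over 48 hours in 96-well plates. At the GI50, growth is halved. At the TGI there is no net growth.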

Experiments:
Assay in all cases: inhibition of tumour cell growth, NCI panel, 48 h
A498 renal = tested on: A498 renal
CAKI-1 renal = tested on: CAKI-1 renal
HCT-15 colon = tested on: HCT-15 colon
HL-60(TB) leukemia = tested on: HL-60(TB) leukemia
HOP-92 NSCLC = tested on: HOP-92 NSCLC
HS 578T breast = tested on: HS 578T breast
OVCAR-3 ovarian = tested on: OVCAR-3 ovarian
OVCAR-8 ovarian = tested on: OVCAR-8 ovarian
SK-MEL-2 melanoma = tested on: SK-MEL-2 melanoma
UACC-62 melanoma = tested on: UACC-62 melanoma

Row | Compound | GI50 (A498 renal) [µM] | TGI (A498 renal) | GI50 (CAKI-1 renal) | TGI (CAKI-1 renal) | GI50 (HCT-15 colon) | TGI (HCT-15 colon) | GI50 (HL-60(TB) leukemia) | TGI (HL-60(TB) leukemia) [µM] | GI50 (HOP-92 NSCLC) [µM] | TGI (HOP-92 NSCLC) | GI50 (HS 578T breast) [µM] | TGI (HS 578T breast) | GI50 (OVCAR-3 ovarian) | TGI (OVCAR-3 ovarian) | GI50 (OVCAR-8 ovarian) | TGI (OVCAR-8 ovarian) | GI50 (SK-MEL-2 melanoma) [µM] | TGI (SK-MEL-2 melanoma) | GI50 (UACC-62 melanoma) | TGI (UACC-62 melanoma)
1 | OCC1OC(N2C=C(c3nc4ccccc4s3)C3C=CC=CC32)C(O)C(O)C1O (centres undefined) | 16 | 38.3 µM | 16.9 µM | > 50 µM | 31.1 µM | > 50 µM | 17.1 µM | > 50 | 9.51 | 30.2 µM | 20.1 | > 50 µM | 14.9 µM | > 50 µM | 18.9 µM | > 50 µM | 31.7 | > 50 µM | 12.5 µM | 36.8 µM
2 | COc1ccc(Sc2[nH]c(C=O)c3ccccc23)cc1 | 3.44 | 23.5 µM | 16.7 µM | 84 µM | 11.6 µM | 24.4 µM | 5.09 µM | 28.4 | 5.52 | 21 µM | 6.44 | 33.6 µM | 11.9 µM | 24.2 µM | 14.1 µM | 32 µM | 13.6 | 32.4 µM | 11 µM | 26.1 µM
3 | Cc1nnn(C)c1-c1cnc2c3ccc(C(C)(C)O)cc3n([C@H](c3ccccc3)C3CCOCC3)c2c1 | < 0.0381 | 0.581 µM | < 0.01 µM | 13.2 µM | < 0.0106 µM | 14.6 µM | < 0.01 µM | 48.1 | < 0.01 | 22.7 µM | < 0.01 | > 100 µM | 0.0271 µM | 14.8 µM | 0.0652 µM | 31.6 µM | 0.765 | 30.7 µM | < 0.01 µM | 12.7 µM
4 | COc1cccc(/C=N\NC(=O)c2ccncc2)c1O | 51.1 | > 100 µM | 1.88 µM | 17.6 µM | 2.87 µM | > 100 µM | 2.27 µM | 8.73 | 3.16 | > 100 µM | > 100 | > 100 µM | 4.61 µM | > 100 µM | 4.54 µM | > 100 µM | 53.2 | > 100 µM | 3.62 µM | 34.6 µM
5 | O=C(Nc1ccc(I)cc1F)c1cc(Br)ccc1O | 0.175 | 0.63 µM | 0.308 µM | 2.34 µM | 0.743 µM | 6.72 µM | 0.472 µM | 3.5 | 0.162 | 0.516 µM | 0.346 | 2.62 µM | 0.457 µM | 11.3 µM | 0.83 µM | > 24.2 µM | 0.386 | 2.18 µM | 0.25 µM | 0.812 µM
6 | CN1CCc2ccccc2C1Cc1ccccc1NC(=O)c1sc2ccccc2c1Cl (centres undefined) |  | > 100 µM |  | > 100 µM |  | > 100 µM |  | > 100 |  | > 100 µM |  | > 100 µM |  | > 100 µM |  | > 100 µM |  | > 100 µM |  | > 100 µM
7 | CC(=O)O[C@@H]1c2c(c3c(=O)c4cccc(O)c4c(=O)c=3c2=[N+]=[N-])[C@H](OC(C)=O)[C@@H](OC(C)=O)[C@]1(C)O | 1.34 | 1.82 µM and 3.02 µM | 0.182 µM | 1.04 µM and 0.374 µM | 0.135 µM | 0.476 µM and 0.298 µM | 0.172 µM |  | 0.172 | 1.84 µM and 0.355 µM | 0.575 | 0.881 µM and 3.54 µM | 0.407 µM | 1.23 µM and 1.4 µM | 0.117 µM | 0.77 µM and 0.461 µM | 0.495 | 1.63 µM and 1.18 µM | 0.297 µM | 1.35 µM and 1.02 µM
8 | COc1cccc(S(=O)(=O)NC2=NCCN2C(=S)SN2CCn3c2nsc3=S)c1 | 68.4 | > 100 µM | 32 µM | 66.2 µM | 21.6 µM | 43.7 µM | 26.1 µM | 79.4 | 44.4 | > 100 µM | 90.3 | > 100 µM | 25.6 µM | 56.5 µM | 44.4 µM | > 100 µM | 68.2 | > 100 µM | 28.6 µM | > 100 µM
9 | CC(C)(C)c1cc(C[P+](c2ccccc2)(c2ccccc2)c2ccccc2)cc(C(C)(C)C)c1O | 0.451 | 3.69 µM | 2.64 µM | 8.7 µM | 2.39 µM | 11.9 µM | 0.22 µM | 0.682 | 0.155 | 0.555 µM | 0.51 | 17.1 µM | 0.359 µM | 10.2 µM | 0.386 µM | 5.56 µM | 0.257 | 0.585 µM | 0.365 µM | 1.66 µM
10 | c1cc(OCCN2CCCC2)ccc1CNc1ccc2nc(CCC3CCCCC3)[nH]c2c1 | 1.15 | 2.77 µM | 1.79 µM | 3.38 µM | 1.55 µM | 3.7 µM | 1.79 µM | 3.72 | 0.471 | 2.25 µM | 1.62 | 4.53 µM | 1.67 µM | 3.52 µM | 2.69 µM | 10 µM | 1.84 | 3.55 µM | 1.85 µM | 3.33 µM
11 | O=C(COc1ccccc1)NNc1ccccc1 | 87.7 | > 300 µM | 6.78 µM and 5.97 µM | > 80.2 µM and 182 µM | 8.88 µM and 12.3 µM | > 300 µM | 3.91 µM and 9.54 µM | > 300 | 71 | 216 µM | 98.3 | > 300 µM | > 95.4 µM and 191 µM | > 300 µM | > 56.1 µM and 58.3 µM | > 300 µM | 74.5 | > 300 µM | 2.71 µM and 5 µM | > 79.5 µM and 91.2 µM
12 | COc1cc(-n2cc(-c3ccc(Cl)cc3)n(-c3ccccc3)c2=O)cc(OC)c1OC | 15.1 | 74.5 µM | 26.8 µM | > 89.9 µM | 8.54 µM | > 100 µM | 2.82 µM | > 47.6 | 22.7 | > 100 µM | 25.6 | > 100 µM | 16.3 µM | > 86.2 µM | 27.7 µM | > 100 µM | 17.4 | 40 µM | 4.92 µM | 28.2 µM
13 | COc1ccc(Nc2ncc(I)c(NCCCNC(=O)C3CCC3)n2)cc1 | 7.25 | 21.7 µM | 1.32 µM | 16 µM | 5.88 µM | 52.1 µM | 3.47 µM | 14.7 | 3.04 | 29.2 µM | 2.94 | 13.2 µM | 7.83 µM | 33.8 µM | 8.6 µM | > 100 µM | 16.8 | 57.1 µM | 17.2 µM | 43.2 µM
14 | CCNCC(=O)Nc1ccc2c(c1)C(=O)c1ccc(NC(=O)CNCC)cc1C2=O |  | 6.46 µM |  | 29.6 µM |  | 8.29 µM |  | 8.81 |  | 12.5 µM |  | 22.1 µM |  | 8.74 µM |  | 15.1 µM |  | 47.4 µM |  | 17.8 µM
15 | NC(=O)c1cn(C2CC(O)C(CO)O2)c2ncnc(N)c12 (centres undefined) | 1.97 | 7.93 µM | 3.2 µM | 39.4 µM | 3.89 µM | 55.2 µM | 2.73 µM | 20 | 0.429 | 13.6 µM | 2.27 | 17.3 µM | 4.09 µM | 19.6 µM | 2.09 µM | 17.9 µM | 10.5 | > 28.2 µM | 2.39 µM | 23 µM
16 | CCOC(=O)c1ccc(N2NC(=O)/C(=C/c3ccc([N+](=O)[O-])o3)C2=O)cc1 | > 37 | > 51.6 µM | 5.76 µM | 13.6 µM | 13.6 µM | 31.5 µM | 11.7 µM | 47.4 | 15.6 | 31.8 µM | > 45.6 | > 75.1 µM | 6.82 µM | 17.1 µM | 27.8 µM | > 64.2 µM | > 40.6 | > 55.4 µM | 19.9 µM | 43 µM
17 | CCOc1ccccc1/C=N\N=C(N/N=C/c1ccccc1OCC)N/N=C/c1ccccc1OCC | 2.17 | 8.45 µM | 1.4 µM | > 100 µM | 0.95 µM | > 100 µM | 5.21 µM | > 100 | 1.24 | 5.63 µM | 2.22 | 8.39 µM | 0.532 µM | 6.79 µM | 3.01 µM | > 100 µM | 2.78 | > 100 µM | 2.05 µM | > 100 µM
18 | CN1CCN(C)C1c1ccc(C2N(C)CCN2C)cc1 | 14.4 | > 100 µM | > 100 µM | > 100 µM | 77.7 µM | > 100 µM | 37.7 µM | > 100 | > 100 | > 100 µM | 64 | > 100 µM | 41.8 µM | > 100 µM | 38.4 µM | > 100 µM | > 100 | > 100 µM | 56.9 µM | > 100 µM
19 | COC(=O)[C@H](Cc1cn(C)cn1)NC(=O)[C@H](CC(C)C)NC(=O)Nc1cc(C(F)(F)F)cc(C(F)(F)F)c1 | > 10 | > 10 µM | > 10 µM | > 10 µM | > 10 µM | > 10 µM | > 10 µM | > 10 | > 10 | > 10 µM | > 10 | > 10 µM | 2.23 µM | 4.82 µM | 9.54 µM | > 10 µM | > 10 | > 10 µM | > 10 µM | > 10 µM
20 | CC1(C)C(=O)/C=C\C(=O)C(C)(C)C2=CC=C(O2)C(C)(C)C(=O)C(Br)C(Br)C(=O)C(C)(C)C2=CC=C1O2 (centres undefined) |  | > 100 µM |  | > 100 µM |  | > 100 µM |  | 18.1 |  | > 100 µM |  | > 100 µM |  | 68.9 µM |  | 40.1 µM |  | > 100 µM |  | 49.3 µM
21 | CC(C)[C@@]12C[C@@H](OC(=O)C3CO3)[C@@](C)(O1)[C@@H]1CC[C@@H](C)[C@H]1[C@@H]2OC(=O)/C=C/c1ccccc1 (some centres undefined) | 2.05 | 4.91 µM | 13.1 µM | 54.8 µM | 21.1 µM | 60.6 µM | 22.7 µM | 68.3 | 12.4 | 27.7 µM | 0.354 | 3.11 µM | 15.8 µM | 30 µM | 5.33 µM | 60.3 µM | 19.1 | 42.8 µM | 14.9 µM | 34.4 µM
22 | Nc1nc(Sc2ccc([N+](=O)[O-])c3nonc23)c2ncn(C3OC(CO)C(O)C3O)c2n1 (centres undefined) | 2.28 | 14 µM | 0.669 µM | > 100 µM | 0.587 µM | 11.9 µM | 3.7 µM | 23.5 | 0.514 | 18.1 µM | 7.89 | 46.3 µM | 2.17 µM | 24.6 µM | 0.794 µM | > 46 µM | 0.393 | 8.81 µM | 0.478 µM | 3.59 µM
23 | COc1cc2c(/C=C3\C(=O)N(C)c4ccccc43)c[nH]c2cc1C | 4.96 | 48.9 µM | 2.01 µM | 51.3 µM | 0.33 µM | > 100 µM | 2.53 µM | 84.8 | 15.7 | 79.4 µM | 3.61 | > 38.8 µM | 3.27 µM | 9.78 µM | 4.14 µM | 45.1 µM | 10.2 | > 84.1 µM | 1.29 µM | > 100 µM
24 | O=S(O)O.O=S(O)O.[Co].[NH2-].[NH2-].[NH2-].[NH2-] | > 100 | > 100 µM | > 100 µM | > 100 µM | > 100 µM | > 100 µM | > 100 µM | > 100 | > 100 | > 100 µM | > 100 | > 100 µM | > 100 µM | > 100 µM | > 100 µM | > 100 µM | > 100 | > 100 µM | > 100 µM | > 100 µM
